Assay results reported in patent US7498349B2, “Biaryl compounds having anti-infective activity” (Genesoft Pharmaceuticals, Inc., priority 2002, dated 2009).

What was measured:
E. coli ATCC 25922 = test: MIC, NCCLS broth microdilution assay; assay type: cell-based, Escherichia coli; settings: E. coli ATCC 25922
C. albicans ATCC 38247 = test: MIC, antifungal assay; assay type: cell-based, Candida albicans; settings: C. albicans ATCC 38247
Source text: In vitro biological activity data were collected for a variety of microorganisms, including Bacillus cereus (ATCC 11778), Staphylococcus aureus (ATCC 33591; ATCC 27660, a methicillin resistant strain (MRSA); ATCC 13709, a methicillin sensitive strain (MSSA)), Escherichia coli (ATCC 25922), Enterococcus faecalis (ATCC 29212), Streptococcus pneumoniae (ATCC 49619; ATCC 51422, a penicillin resistant strain (PRSP)), Enterococcus faecium (ATCC 51559, a vancomycin resistant strain (VRE)), and Staphylococcus epidermidis (ATCC 12228). Additionally, antifungal activity data were collected for Candida albicans (ATCC 38247).
The minimal inhibition concentration (MIC) of these compounds was determined using the National Committee for Clinical Laboratory Standards (NCCLS) broth microdilution assay in microtiter plates, as set forth in: (1) the guidelines of the National Committee for Clinical Laboratory Standards (NCCLS) Document M7-A4 (NCCLS, 1997); (2) the guidelines of the National Committee for Clinical Laboratory Standards (NCCLS) Document M11-A4 (NCCLS, 1997); and (3) the guidelines and reference method of the National Committee for Clinical Laboratory Standards (NCCLS) Document M27 -T (NCCLS, 1995). For antifungal assays, the method recommended in Murray, PR., 1995 Manual of Clinical Microbiology (ASM Press, Washington, D.C.), was employed.

S. pneumoniae ATCC 49619 = test: MIC, NCCLS broth microdilution assay; assay type: cell-based, Streptococcus pneumoniae; settings: S. pneumoniae ATCC 49619
E. faecalis ATCC 29212 = test: MIC, NCCLS broth microdilution assay; assay type: cell-based, Enterococcus faecalis; settings: E. faecalis ATCC 29212
S. aureus ATCC 33591 = test: MIC, NCCLS broth microdilution assay; assay type: cell-based, Staphylococcus aureus; settings: S. aureus ATCC 33591
S. aureus ATCC 13709 = test: MIC, NCCLS broth microdilution assay; assay type: cell-based, Staphylococcus aureus; settings: S. aureus ATCC 13709, methicillin sensitive strain (MSSA)
S. aureus ATCC 27660 = test: MIC, NCCLS broth microdilution assay; assay type: cell-based, Staphylococcus aureus; settings: S. aureus ATCC 27660, methicillin resistant strain (MRSA)
B. cereus ATCC 11778 = test: MIC, NCCLS broth microdilution assay; assay type: cell-based, Bacillus cereus; settings: B. cereus ATCC 11778

Row | Compound | Minimum Inhibitory Concentration (MIC) (E. coli ATCC 25922) | Minimum Inhibitory Concentration (MIC) (C. albicans ATCC 38247) | Minimum Inhibitory Concentration (MIC) (S. pneumoniae ATCC 49619) | Minimum Inhibitory Concentration (MIC) (E. faecalis ATCC 29212) | Minimum Inhibitory Concentration (MIC) (S. aureus ATCC 33591) | Minimum Inhibitory Concentration (MIC) (S. aureus ATCC 13709) | Minimum Inhibitory Concentration (MIC) (S. aureus ATCC 27660) | Minimum Inhibitory Concentration (MIC) (B. cereus ATCC 11778)
1 | Cc1ccc2nc(-c3ccc(NC(=O)c4nsc(NCCCN(C)C)c4Cl)cc3)sc2c1 [Compound A-54] | >32 µg/mL | +++ (MIC ≦ 4) | + (12 ≦ MIC ≦ 32) | +++ (MIC ≦ 4) | +++ (MIC ≦ 4) | +++ (MIC ≦ 4) | +++ (MIC ≦ 4) | +++ (MIC ≦ 4)
2 | O=C(Nc1ccc(-c2cc3ccccc3s2)cc1)c1cccnc1NCCN1CCNCC1 [Compound A-48] | >32 µg/mL | >32 µg/mL | >32 µg/mL | >32 µg/mL | +++ (MIC ≦ 4) | +++ (MIC ≦ 4) | +++ (MIC ≦ 4) | + (12 ≦ MIC ≦ 32)
3 | Cc1cc(NC(=O)c2cccnc2NCCCN(C)C)ccc1-c1cc2ccccc2o1 [Compound A-30] | >32 µg/mL | + (12 ≦ MIC ≦ 32) | + (12 ≦ MIC ≦ 32) | +++ (MIC ≦ 4) | +++ (MIC ≦ 4) | +++ (MIC ≦ 4) | +++ (MIC ≦ 4) | ++ (4 < MIC < 12)
4 | CN(C)CCCNc1snc(C(=O)Nc2ccc(-c3cc4ccccc4s3)nc2)c1Cl [Compound A-67] | >32 µg/mL | +++ (MIC ≦ 4) | >32 µg/mL | +++ (MIC ≦ 4) | +++ (MIC ≦ 4) | +++ (MIC ≦ 4) | +++ (MIC ≦ 4) | +++ (MIC ≦ 4)
5 | Cc1cc(NC(=O)c2cccnc2NCCCCN)ccc1-c1cc2ccccc2o1 [Compound A-29] | >32 µg/mL | + (12 ≦ MIC ≦ 32) | + (12 ≦ MIC ≦ 32) | +++ (MIC ≦ 4) | +++ (MIC ≦ 4) | +++ (MIC ≦ 4) | +++ (MIC ≦ 4) | +++ (MIC ≦ 4)
6 | O=C(Nc1ccc(-c2cc3ccccc3[nH]2)cc1)c1nsc(NCCN2CCCC2)c1Cl [Compound A-58] | >32 µg/mL | +++ (MIC ≦ 4) | + (12 ≦ MIC ≦ 32) | ++ (4 < MIC < 12) | ++ (4 < MIC < 12) | + (12 ≦ MIC ≦ 32) | ++ (4 < MIC < 12) | + (12 ≦ MIC ≦ 32)
7 | NCCCCNc1ncccc1C(=O)Nc1ccc(-c2cc3ccccc3s2)nc1 [Compound A-75] | >32 µg/mL | >32 µg/mL | + (12 ≦ MIC ≦ 32) | +++ (MIC ≦ 4) | +++ (MIC ≦ 4) | +++ (MIC ≦ 4) | +++ (MIC ≦ 4) | +++ (MIC ≦ 4)
8 | O=C(Nc1ccc(-c2cc3ccccc3s2)nc1)c1nsc(NCCN2CCNCC2)c1Cl [Compound A-70] | >32 µg/mL | +++ (MIC ≦ 4) | >32 µg/mL | +++ (MIC ≦ 4) | +++ (MIC ≦ 4) | +++ (MIC ≦ 4) | +++ (MIC ≦ 4) | >32 µg/mL
9 | O=C(Nc1ccc(-c2cc3ccccc3s2)nc1)c1cccnc1NCCN1CCNCC1 [Compound A-73] | >32 µg/mL | >32 µg/mL | >32 µg/mL | >32 µg/mL | >32 µg/mL | >32 µg/mL | >32 µg/mL | >32 µg/mL
10 | NCCNc1snc(C(=O)Nc2ccc(-c3cc4ccccc4o3)nc2)c1Cl [Compound A-38] | >32 µg/mL | + (12 ≦ MIC ≦ 32) | >32 µg/mL | +++ (MIC ≦ 4) | +++ (MIC ≦ 4) | +++ (MIC ≦ 4) | +++ (MIC ≦ 4) | +++ (MIC ≦ 4)
11 | O=C(Nc1ccc(-c2cc3ccccc3[nH]2)cc1)c1nsc(NCCN2CCNCC2)c1Cl [Compound A-59] | >32 µg/mL | +++ (MIC ≦ 4) | + (12 ≦ MIC ≦ 32) | +++ (MIC ≦ 4) | + (12 ≦ MIC ≦ 32) | ++ (4 < MIC < 12) | ++ (4 < MIC < 12) | + (12 ≦ MIC ≦ 32)
12 | O=C(Nc1ccc(-c2cc3ccccc3o2)cc1)c1ccc(Cl)cc1NCCN1CCCC1 [Compound A-25] | >32 µg/mL | >32 µg/mL | >32 µg/mL | + (12 ≦ MIC ≦ 32) | + (12 ≦ MIC ≦ 32) | + (12 ≦ MIC ≦ 32) | + (12 ≦ MIC ≦ 32) | >32 µg/mL
13 | CN(CCCN)CCCNc1ncccc1C(=O)Nc1ccc(-c2cc3ccccc3s2)nc1 [Compound A-76] | + (12 ≦ MIC ≦ 32) | + (12 ≦ MIC ≦ 32) | + (12 ≦ MIC ≦ 32) | ++ (4 < MIC < 12) | ++ (4 < MIC < 12) | +++ (MIC ≦ 4) | +++ (MIC ≦ 4) | + (12 ≦ MIC ≦ 32)
14 | CN(CCCN)CCCNc1snc(C(=O)Nc2ccc(-c3cc4ccccc4s3)nc2)c1Cl [Compound A-71] | +++ (MIC ≦ 4) | ++ (4 < MIC < 12) | + (12 ≦ MIC ≦ 32) | +++ (MIC ≦ 4) | +++ (MIC ≦ 4) | +++ (MIC ≦ 4) | +++ (MIC ≦ 4) | +++ (MIC ≦ 4)
15 | CN(CCCN)CCCNc1cc(Cl)ccc1C(=O)Nc1ccc(-c2cc3ccccc3o2)nc1 [Compound A-41] | ++ (4 < MIC < 12) | ++ (4 < MIC < 12) | + (12 ≦ MIC ≦ 32) | +++ (MIC ≦ 4) | +++ (MIC ≦ 4) | +++ (MIC ≦ 4) | +++ (MIC ≦ 4) | ++ (4 < MIC < 12)
